# Source: article PMC4574636 (Biochemical pharmacology, 2015)
# Experiments:
# [1] = target: T1, human AOX1 V1016R (Homo sapiens, UniProt Q06278, V1016R); assay: Methotrexate hydroxylation by purified recombinant human AOX1 V1016R mutant; assay type: in vitro ADME; settings: V1016R single mutant
# T1 sequence (Q06278 1-1338 V1016R): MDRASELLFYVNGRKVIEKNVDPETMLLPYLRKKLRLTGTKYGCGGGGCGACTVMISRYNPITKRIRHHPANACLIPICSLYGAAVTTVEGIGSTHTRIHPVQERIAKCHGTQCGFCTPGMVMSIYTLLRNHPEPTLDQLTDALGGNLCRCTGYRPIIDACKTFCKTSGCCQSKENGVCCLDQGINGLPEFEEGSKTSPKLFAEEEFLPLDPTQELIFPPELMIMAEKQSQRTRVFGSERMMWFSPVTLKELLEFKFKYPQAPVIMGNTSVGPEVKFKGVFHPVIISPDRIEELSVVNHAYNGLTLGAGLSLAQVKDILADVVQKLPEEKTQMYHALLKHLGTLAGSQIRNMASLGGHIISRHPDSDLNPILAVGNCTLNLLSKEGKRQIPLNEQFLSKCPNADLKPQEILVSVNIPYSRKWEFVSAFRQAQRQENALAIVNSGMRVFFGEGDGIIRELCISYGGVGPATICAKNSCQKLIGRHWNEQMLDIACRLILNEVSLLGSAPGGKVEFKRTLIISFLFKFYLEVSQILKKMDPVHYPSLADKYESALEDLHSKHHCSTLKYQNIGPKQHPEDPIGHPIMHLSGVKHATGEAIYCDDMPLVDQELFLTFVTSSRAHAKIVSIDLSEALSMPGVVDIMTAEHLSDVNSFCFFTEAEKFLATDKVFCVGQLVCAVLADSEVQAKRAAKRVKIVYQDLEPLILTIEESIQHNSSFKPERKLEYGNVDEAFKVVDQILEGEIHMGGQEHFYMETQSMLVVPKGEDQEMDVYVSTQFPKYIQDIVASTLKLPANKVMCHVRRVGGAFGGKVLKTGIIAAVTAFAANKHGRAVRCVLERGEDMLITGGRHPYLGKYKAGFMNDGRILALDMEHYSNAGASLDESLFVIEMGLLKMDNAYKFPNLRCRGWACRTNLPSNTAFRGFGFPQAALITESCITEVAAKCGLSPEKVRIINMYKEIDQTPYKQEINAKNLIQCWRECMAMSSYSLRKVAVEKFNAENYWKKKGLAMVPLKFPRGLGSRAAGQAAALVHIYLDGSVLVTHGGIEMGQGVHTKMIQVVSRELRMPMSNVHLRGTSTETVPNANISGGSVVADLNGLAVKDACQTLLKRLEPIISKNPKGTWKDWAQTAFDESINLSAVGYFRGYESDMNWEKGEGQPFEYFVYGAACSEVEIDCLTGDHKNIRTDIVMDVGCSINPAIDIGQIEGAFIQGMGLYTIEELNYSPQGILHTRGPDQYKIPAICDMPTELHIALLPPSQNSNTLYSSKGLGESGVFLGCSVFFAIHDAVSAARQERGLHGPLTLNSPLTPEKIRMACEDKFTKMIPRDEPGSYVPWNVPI
# [2] = target: T2, aldehyde oxidase (AOX) (Cavia porcellus, UniProt H9TB17); settings: guinea pig liver cytosol, mean ± SEM; estimate, saturation incomplete
# T2 sequence (H9TB17 1-1332): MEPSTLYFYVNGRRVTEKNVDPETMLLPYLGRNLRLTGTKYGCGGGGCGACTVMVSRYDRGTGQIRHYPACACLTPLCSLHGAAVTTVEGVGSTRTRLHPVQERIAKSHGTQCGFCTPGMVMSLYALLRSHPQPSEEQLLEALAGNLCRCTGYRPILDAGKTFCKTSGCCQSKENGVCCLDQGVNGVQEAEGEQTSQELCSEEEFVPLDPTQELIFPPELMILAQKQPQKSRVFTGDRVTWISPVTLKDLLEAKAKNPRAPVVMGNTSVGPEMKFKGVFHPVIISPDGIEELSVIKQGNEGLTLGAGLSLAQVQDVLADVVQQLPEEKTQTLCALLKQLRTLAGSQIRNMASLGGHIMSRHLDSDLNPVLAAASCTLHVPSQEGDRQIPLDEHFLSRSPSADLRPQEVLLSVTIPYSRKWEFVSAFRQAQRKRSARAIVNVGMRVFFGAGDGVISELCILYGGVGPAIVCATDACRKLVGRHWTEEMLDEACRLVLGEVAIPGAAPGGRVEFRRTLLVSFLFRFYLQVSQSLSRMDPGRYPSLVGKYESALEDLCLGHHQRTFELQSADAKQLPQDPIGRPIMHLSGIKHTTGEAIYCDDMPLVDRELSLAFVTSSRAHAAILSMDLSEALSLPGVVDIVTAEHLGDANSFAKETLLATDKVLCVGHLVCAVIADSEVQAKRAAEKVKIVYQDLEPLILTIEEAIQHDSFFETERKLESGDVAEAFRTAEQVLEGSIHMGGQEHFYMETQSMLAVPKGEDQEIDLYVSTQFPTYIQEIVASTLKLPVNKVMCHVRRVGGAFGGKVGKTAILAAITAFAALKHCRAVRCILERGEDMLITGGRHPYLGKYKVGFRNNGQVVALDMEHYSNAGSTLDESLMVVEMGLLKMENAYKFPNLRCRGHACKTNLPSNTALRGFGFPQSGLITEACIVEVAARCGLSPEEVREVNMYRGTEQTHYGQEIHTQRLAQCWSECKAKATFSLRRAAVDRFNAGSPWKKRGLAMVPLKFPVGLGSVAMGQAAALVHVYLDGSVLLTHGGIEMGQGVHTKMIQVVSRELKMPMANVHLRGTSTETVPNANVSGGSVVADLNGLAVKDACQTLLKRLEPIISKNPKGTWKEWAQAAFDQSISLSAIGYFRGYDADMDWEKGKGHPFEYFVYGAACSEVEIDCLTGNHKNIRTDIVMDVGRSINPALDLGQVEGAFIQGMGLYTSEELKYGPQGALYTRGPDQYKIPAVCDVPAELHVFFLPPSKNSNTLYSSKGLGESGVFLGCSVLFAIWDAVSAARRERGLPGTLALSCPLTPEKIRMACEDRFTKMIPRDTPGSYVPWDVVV
compound,measurement,setting,value
"CN(Cc1cnc2nc(N)nc(N)c2n1)c1ccc(C(=O)N[C@@H](CCC(=O)O)C(=O)O)cc1 [Methotrexate, 4-amino-N^1^0-methylpteroglutamic acid]",Km / affinity vs wild type,[1]; Figure 5,decreased affinity for methotrexate compared to wild type AOX1
same,Methotrexate hydroxylation activity vs wild type,"[1]; p < 0.01, Figure 5",significant decrease
same,Vmax,[2],70 ± 10 pmol/min/mg
